Measured values reported in paper PMC10220917, “Transdermal Delivery of α-Aminophosphonates as Semisolid Formulations—An In Vitro-Ex Vivo Study” (Pharmaceutics, 2023).
Values joined by “and” are separate entries in the source; they are usually repeats but may differ in a detail not shown here. Equal entries are not always repeated.

What was measured:
[1] = Drug penetration in dynamic skin-on-a-chip microfluidic diffusion chamber through excised rat skin; type: in vitro ADME, male Wistar rats; details: 2% cream; for Effect of higher temperature on absorption across excised skins: 32 °C vs 23.5 °C, dynamic diffusion cells; for Cmax (cumulative mass penetrated through excised skin): dynamic cell, excised rat skin, 5 h
Method: In the ex vivo experiments, the abdominal skin of male Wistar rats (ToxiCoop, Budapest, Hungary), with 520–609 g bodyweight, were used. The animals had free access to food and water before the study. The experiments were performed in compliance with the guidelines of the Association for Assessment and Accreditation of Laboratory Animal Care International and were in accordance with the spirit of the license issued by the Directorate for the Safety of the Food Chain and Animal Health, Budapest, and Pest Agricultural Administrative Authority, Hungary (PE/EA/4122-7/2016). The rats were anaesthetized intraperitoneally with chloral hydrate (400 mg/kg). The abdominal surface was shaved with an electric shaver and epilated with an epilator cream (X-epil, Aveola Kft., Budapest, Hungary). The skin was washed, wiped dry and mechanically sensitized 10 times by tape stripping with leucoplast (BSN Medical GmbH, Hamburg, Germany) to remove the upper layers of dead keratinocytes. This technique enables reaching detectable concentrations in the dermis and hypodermis. The double-layered skin (pinched together by hand) thickness of the epilated tape-stripped skin was measured with an engineer’s micrometer (Asimeto, Budapest, Hungary). The average double-layered skin thickness was 1.53 ± 0.03 mm. After the first cutting with blunt Metzen scissors, connecting tissue, fat and blood vessels were carefully removed. For the Franz diffusion cell and skin-on-a-chip studies, full-thickness skin incisions were made by punches (Stubai GmbH, Fulpmes, Austria) in diameter of 35 mm and 18 mm, respectively. The excised samples were wrapped in aluminium foil and stored in a deep freezer at −80 °C. On the day of the study, the skin preparations were taken out from the freezer for 30 min before the initiation of the experiment and thawed at room temperature.
The skin-on-a-chip microfluidic diffusion chamber is a polydimethylsiloxane-based system in an aluminium frame (Figure 1B). Similar to the Franz diffusion cells, it contains two compartments, and the membrane or skin is placed between them. The major advantage of this technique is the reduction in needed volumes and pieces in the required components, membranes and skins, as discussed in detail in our previous papers. The diffusion surface is 0.5 cm^2, which separates the aminophosphonate cream-containing donor chamber and the PPF-filled receptor chamber. Contrary to the static Franz diffusion cells, the microfluidic diffusion chamber is a dynamic system, i.e., the PPF flow is continuous in the receptor compartment, ensured by a syringe pump (NE-1000, New Era, Farmingdale, NY, USA), which includes a 5 mL syringe filled with PPF, at a flow rate of 4 µL/min during the experiment. The PPF solution was running through the chip, filling the receptor chamber and the microfluidic channel and leaving the device at the outlet into collection vials. The samples were collected every 30 min for 5 h. The collected samples were placed on dry ice and stored at −80 °C until the bioanalysis. First, the experiments were performed at room temperature (23.5 °C) with temperature regulation by automatic air conditioning system in the lab in three parallels. The investigations were then repeated at 32 °C, putting the whole system into an incubator (Steriliser SN160, Memmert GmbH, Schwabach, Germany). As the volume capacity of incubator was low, only one syringe pump and skin-on-a-chip could be tested in the instrument at the same time. […]

[2] = Particle size (droplet size) distribution of 2% creams by laser diffraction; type: physicochemical; details: 2% cream formulation
Source text: α-Aminophosphonates were dispersed in the following hydrophilic cream base (O/W emulsion ointments): 46 m/m% Petrolatum ointment base, 10 m/m% Propylene glycol (Hungaropharma Zrt., Budapest, Hungary), 4 m/m% Paraffin oil (Hungaropharma Zrt., Budapest, Hungary), 38 m/m% Purified water. The components of the Petrolatum ointment base were 26 m/m% Vaselinum album (Hungaropharma Zrt., Budapest, Hungary), 12 m/m% Cetostearyl alcohol (Molar Chemicals Kft, Halásztelek, Hungary), 10 m/m% Propylene glycol, 8 m/m% Paraffin oil, 4 m/m% Polyoxyethylene sorbitan monostearate (Poly-sorbate 60) (Hungaropharma Zrt. Budapest, Hungary), and 40 m/m% Purified water (Table 3). The concentration of propylene glycol was set based on the recommendations on topical dosage forms.
The particle size distribution was measured with a Malvern Mastersizer2000 (Malvern Instruments Ltd., Malvern, UK) laser diffraction device. In total, 1 g of sample was dispersed in 10 mL of water, and after 1 min of Vortex shaking, 1 mL was taken and added to the sample dispenser unit containing 100 mL of purified water. The dispenser unit was applied at 1500 RPM.
The multi-channel detector system measured the scattering of red laser light with a wavelength of […], and the evaluation software provided the results after three parallel exposures according to the Fraunhofer method. The average curves were calculated from three parallel measurements. […]

[3] = test system: multidrug-resistant (MDR) uterine sarcome cell line; design: method as in earlier work; details: MDR uterine sarcoma cells; cited from earlier work
[4] = Drug penetration in static Franz diffusion cells through excised rat skin; type: in vitro ADME, male Wistar rats; details: 2% cream, Franz cell, 32 °C
Method: In the ex vivo experiments, the abdominal skin of male Wistar rats (ToxiCoop, Budapest, Hungary), with 520–609 g bodyweight, were used. The animals had free access to food and water before the study. The experiments were performed in compliance with the guidelines of the Association for Assessment and Accreditation of Laboratory Animal Care International and were in accordance with the spirit of the license issued by the Directorate for the Safety of the Food Chain and Animal Health, Budapest, and Pest Agricultural Administrative Authority, Hungary (PE/EA/4122-7/2016). The rats were anaesthetized intraperitoneally with chloral hydrate (400 mg/kg). The abdominal surface was shaved with an electric shaver and epilated with an epilator cream (X-epil, Aveola Kft., Budapest, Hungary). […] The double-layered skin (pinched together by hand) thickness of the epilated tape-stripped skin was measured with an engineer’s micrometer (Asimeto, Budapest, Hungary). […]
Hanson 6-Cell Manual Diffusion Test System-type vertical diffusion cells (Franz cell) were used (Hanson Research Corp., Chatsworth CA, USA; ABL&E-JASCO Hungary Kft., Budapest, Hungary, Figure 1A). […] The weight of the sample was measured with analytical accuracy. […]

[5] = Drug release in static Franz diffusion cells through cellulose acetate membrane; type: in vitro ADME; details: 2% cream, Franz cell, 32 °C
Method: (§1) For the in vitro studies, cellulose acetate filter with pore size of 0.45 μm (Sartorius AG, Göttingen, Germany) was cut to size (35 mm and 18 mm diameter discs for Franz diffusion cell and skin-on-a-chip microfluidic system, respectively) and soaked in isopropyl myristate (Molar Chemicals Kft., Halásztelek, Hungary) for 30 min before the experiment. The excess of isopropyl myristate was removed, and the impregnated cellulose acetate membrane was placed into the Franz diffusion cell or microfluidic diffusion chamber.
Hanson 6-Cell Manual Diffusion Test System-type vertical diffusion cells (Franz cell) were used (Hanson Research Corp., Chatsworth CA, USA; ABL&E-JASCO Hungary Kft., Budapest, Hungary, Figure 1A). Each unit was composed of a donor chamber, which was filled with 1000 µL of the aminophosphonate cream by a Microman E piston gel positive replacement pipette (Gilson, Middleton, WI, USA). The sample was layered in a uniform layer on the top of the membrane. The weight of the sample was measured with analytical accuracy. […]
(§2) The Franz diffusion cell data and the skin-on-a-chip data were averaged, and the means and standard error of the mean (SE) were calculated and presented. Area under the curve (AUC) values were calculated using Origin Pro software. […]

[6] = Drug release in dynamic skin-on-a-chip microfluidic diffusion chamber through cellulose acetate membrane; type: in vitro ADME; details: 2% cream
Method: as §1
The skin-on-a-chip microfluidic diffusion chamber is a polydimethylsiloxane-based system in an aluminium frame (Figure 1B). Similar to the Franz diffusion cells, it contains two compartments, and the membrane or skin is placed between them. The major advantage of this technique is the reduction in needed volumes and pieces in the required components, membranes and skins, as discussed in detail in our previous papers. The diffusion surface is 0.5 cm^2, which separates the aminophosphonate cream-containing donor chamber and the PPF-filled receptor chamber. […]
as §2

Structure (SMILES)	Effect of higher temperature on absorption across excised skins [1]	Particle (droplet) size d of main peak [2]	Particle (droplet) size d of second peak [2] [µm]	Volume share at main particle size peak [2]	Volume share at second particle size peak [2]	Degree of cytotoxicity [3]	Cmax (cumulative mass penetrated through excised skin) ([1]; 32 °C)	Cmax (cumulative mass penetrated through excised skin) ([1]; ambient temperature (23.5 °C))	Penetration profile in rat skin [4]	Cmax (cumulative mass penetrated through excised skin) ([4]; excised rat skin, 5 h)	Penetration kinetics in the membrane [5]	Cmax (cumulative mass released through membrane) ([5]; cellulose acetate membrane, 5 h)	Cmax (cumulative mass released through membrane) ([6]; dynamic cell, cellulose acetate membrane, 32 °C, 5 h)	Effect of higher temperature on penetration through membranes ([6]; 32 °C vs 23.5 °C, dynamic diffusion cells)
CCOP(=O)(OCC)C(NCc1ccccc1)c1ccc(C)cc1 (stereo not drawn) [1b]	practically independent of the temperature	30–40 µm	110	about 6.3%	about 3.2%	most effective								
CCOP(=O)(OCC)C(NCc1ccccc1)c1ccccc1 (stereo not drawn) [1a]	significantly improved	33.156 µm and 33 µm		7%		less cytotoxic	~ 9 µg/cm^2	~ 2.8 μg/cm^2	almost linear growing profile	~ 21 µg/cm^2	rapid and saturating	~ 330 µg/cm^2	~ 300 µg/cm^2	only moderately enhanced
CCOP(=O)(OCC)C(NCc1ccccc1)c1ccc(Cl)cc1 (stereo not drawn) [1c]	significantly improved	20–30 µm	110	7.3%	~ 3.0%	most effective								
